The text below walks through data of patent US20250051391A1, “PEPTIDE INHIBITORS AND METHODS FOR INHIBITING PROTEIN AGGREGATION IN NEURONS AND NEURODEGENERATIVE DISEASES” (THE GOVERNING COUNCIL OF THE UNIVERSITY OF TORONTO, priority 2021, published 2025).

Ends that are not written are not given here.

Test [1] deals with HEK293 cells. Briefly: Lysosome activity (lysosomal flux) assay in HEK293 cells. The format is cell-based, human. Conditions: HEK293 cells co-expressing A53T a-syn. The protocol:
The Lysosome Intracellular Activity Assay kit was purchased from Abcam and used per manufacturer's instructions (ab234622). Briefly, cell medium was replaced with fresh medium containing DMSO, Leupeptin, or Bafilomycin A1 and incubated for 1 h at 37° C. with 5% CO2. Self-quenched substrate was added into each condition and incubated for 1 h (HEK293 cells) or overnight (SNCA triplication fibroblasts) at 37° C. with 5% CO2. After incubation, cells were washed twice in ice-cold 1× assay buffer containing DMSO, Leupeptin, or Bafilomycin A1. For HEK293 cells, cells were re-suspended in PBS containing DMSO or Leupeptin and analyzed by FACS. For fibroblasts, cells were incubated in PBS containing DMSO or Bafilomycin A1 and imaged by confocal microscopy.

The subject of test [2] is HEK293 cells. Put plainly: LAMP1 and CD63 levels in HEK293 cells co-transfected with A53T a-syn and peptide. The format is cell-based, human. The procedure: Infected or transfected cells were scraped from 6-well dishes and lysed with lysis buffer (50 mM Tris-HCl pH7.4, 1% Nonidet P-40, 150 mM NaCl, 1 mM EDTA, 1× protease inhibitor mixture (Sigma)) for 30 min at 4° C. The insoluble pellet was removed following a 10,000 rpm spin for 5 minutes at 4° C. Lysates were analyzed by SDS-PAGE/immunoblot using 4-20% Mini-PROTEAN Tris-glycine gels (Bio-Rad) transferred to PVDF membranes and blocked in 5% milk containing PBS-Tween-20 (0.1%) for 1 h. PVDF membranes were then incubated with specified primary antibodies followed by incubation with horseradish peroxidase-conjugated secondary antibodies (Santa Cruz Biotechnology) and detected using enhanced chemiluminescence (GE Healthcare).
After fixation, cells were permeabilized with 0.2% Triton X-100 for 15 min, washed 3 times with PBS and then incubated with blocking solution (1% BSA, 22.52 mg/mL glycine, 0.1% Tween-20 in PBS) for 1 h. Primary antibodies were diluted in blocking solution and incubated overnight at 4° C. Following three washes with PBS, cells were next incubated with fluorescent secondary antibodies diluted in blocking solution for 1 h at room temperature. Following another 3 PBS washes, nuclei were counterstained with DAPI (ThermoFisher) and then coverslips were mounted on slides using fluorescence mounting medium (DAKO) and sealed using clear nail varnish.

Test [3] concerns rat substantia nigra dopaminergic neurons. Put plainly: AAV V1S/SV2 a-syn oligomer rat model. The format is in vivo. The procedure:
Adult female Sprague-Dawley rats (250-280 g; Envigo) were pair-housed in cages with wood bedding and had access to food and water ad libitum. The animal colony was maintained in a regular 12-h light/dark cycle. All procedures were approved by the University Health Network Animal Care Committee in accordance with guidelines and regulations set by the Canadian Council on Animal Care.
Animals were secured in a stereotactic frame under isoflurane/oxygen anaesthesia and ketoprofen (5 mg/kg) analgesia. The surgical site was shaved and sterilized with iodine/betadine prior to making a 2 cm incision along the midline. The scalp was exposed and a unilateral injection targeting the SN was performed at coordinates AP−5.2 mm, ML−2 mm and DV−7.4 mm with respect to the bregma as a point of reference. For each animal, a total volume of 2 μl of virus was injected at a rate of 0.5 μl/min using a microinjection pump and 10 μl Hamilton syringe with a 26-gauge needle. For A53T groups, 1 μl (low dose) or 1.34 μl (high dose) of AAV1/2-A53T a-syn (5.1×10^12 genomic particles/ml), 0.14 μl of AAV1/2-Pdpep1.3-GFP or scramble1.3-GFP (5.1×10^12 genomic particles/ml) and 0.86 μl or 0.52 μl of sterile PBS was injected; for EV groups, 1 μl (low dose) or 1.34 μl (high dose) of AAV1/2-EV (5.1×10^12 genomic particles/ml) replaced AAV1/2-A53T. For V1S+SV2 groups, 0.58 μl of AAV1/2-V1S (1.1×10^12 genomic particles/ml), 0.58 μl of AAV1/2-SV2 (1.1×10^12 genomic particles/ml), 0.14 μl of AAV1/2-Pdpep1.3-RFP or scramble1.3-RFP (5.1×10^12 genomic particles/ml) and 0.7 μl of sterile PBS was injected; for the YFP groups, 1.16 μl of AAV1/2-YFP (1.1×10^12 genomic particles/ml), 0.14 μl of AAV1/2-Pdpep1.3-RFP or scramble1.3-RFP (5.1×10^12 genomic particles/ml) and 0.7 μl of sterile PBS was injected. At the end of virus injection, the needle remained in place for 5 minutes before gradual removal.
Animals were uthanized by transcardial perfusion with heparinised saline under isoflurane/oxygen anaesthesia. Brains were then removed and the ventral part, including the ventral striatum, was snap frozen in liquid dry ice-cooled isopentane. […]
Immunofluorescence staining for a-syn, tyrosine hydroxylase and LAMP1 was performed by washing free-floating sections with PBS-T (0.2% Triton X-100) three times for 10 min each at room temperature. […] Sections were then mounted onto glass slides and allowed to dry and then fluorescence mounting medium (DAKO) was applied followed by cover slips.
Confocal images of immunofluorescent staining were acquired with a Zeiss LSM880 confocal microscope equipped with 405, 488, 555, and 639 nm laser lines. All images were taken within the linear range at constant gain and pinhole settings at optimal resolution settings determined by the software. […]

With DEEIERQLKALG [PDpep1.3], the lysosomal flux entry with HEK293 cells [1] is “returned lysosomal flux to baseline”. The “CD63 levels (MVB marker)” value with HEK293 cells [2] (HEK293 cells expressing A53T a-syn) is listed as “return of CD63”. Moreover, the LAMP1 levels result in the test on HEK293 cells [2] (HEK293 cells overexpressing A53T a-syn) is “restored”. Besides, in test [3] (6 weeks post-injection), the “surviving dopaminergic neurons in the SN and terminals in the striatum (TH)” value is recorded as “increase in surviving dopaminergic neurons”; the “total a-syn positive area in the SN” value is “decrease”. In test [3] (6 weeks post-injection, vs Scramble1.3), the “a-syn oligomer levels measured by YFP positive area in SN and striatum” value was “significant reduction”. Moreover, in test [3] (rats, V1S/SV2, 6 weeks post-injection, AAV-expressed RFP peptide), the “YFP mean fluorescence intensity in SN cells positive for TH and RFP” value is recorded as 0.063±0.0167 RFU.
